Data taken from patent US12070483B2, “Compositions and methods for treatment of acute lung injury” (THE TRUSTEES OF THE UNIVERSITY OF PENNSYLVANIA, priority 2018, dated 2024).

What was measured:
aiPLA2 activity of Prdx6 = target: T1, aiPLA2 activity of Prdx6 (Mus musculus, UniProt O08709); experiment: Lung aiPLA2 activity after IT LPS; type: in vivo; details: PIP-2 with IT LPS 5 μg/g; 6, 12 and 24 h
T1 construct: from tissue; host or cells: mouse lung homogenate (wild type mice)
T1 sequence (O08709 1-224): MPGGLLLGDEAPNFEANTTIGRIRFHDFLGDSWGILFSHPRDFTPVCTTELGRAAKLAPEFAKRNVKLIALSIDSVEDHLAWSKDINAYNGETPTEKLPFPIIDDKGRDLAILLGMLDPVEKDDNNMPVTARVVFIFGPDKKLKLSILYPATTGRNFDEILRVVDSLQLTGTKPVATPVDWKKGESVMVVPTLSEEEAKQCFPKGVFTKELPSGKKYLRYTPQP
Experimental: FIGS. 4A and 4B: Phospholipase A2 of Prdx6 (aiPLA2) was measured by the liberation of palmitic acid from dipalmitoylphosphatidylcholine under acidic conditions (pH 4) in the absence of Ca^2+. FIG. 4A: The effect of increasing concentration of PIP-2 on the aiPLA2 activity of recombinant human Prdx6. FIG. 4B: The effect of LPS and PIP-2 treatment on aiPLA2 activity of mouse lungs. Mice (n=3 for each condition) were treated with intratracheal LPS (2 μg/g body wt) without or with PIP-2 (2 μg/g body weight) in liposomes. Animals were sacrificed at 6,12, or 24 h after receiving LPS. Lungs were cleared of blood and homogenized.
FIGS. 9A and 9B: PIP-2 inhibits the increased lung aiPLA2 activity and increased ROS generation after LPS administration. LPS (5 μg/g body weight) was administered by intratracheal (IT) instillation along with liposomes alone (labeled as LPS) or with PIP-2 in liposomes (labeled as +PIP-2). Control was liposomes alone without LPS (labeled as control). Mice were sacrificed at 6, 12, or 24 h after LPS and lungs were perfused in situ for 15 min with saline solution containing the fluorophore difluorofluoroscein diacetate (DFF-DA). Lungs then were homogenized and assayed for: FIG. 9A: aiPLA2 activity; FIG. 9B: fluorescence of the lung homogenate as an index of ROS production. […]

[1] = system: mice, intraperitoneal LPS; experiment: Intraperitoneal LPS (15 μg/g) model of ALI with systemic sepsis: survival; details: LPS 15 μg/g IP
Experimental: (§1) LPS (15 mg/g body wt) was given to all mice either by: FIG. 7A: intratracheal (IT) or FIG. 7B: intraperitoneal (IP) injection. PIP-2 in liposomes or placebo (liposomes alone) was administered intravenously (IV) 12 h after LPS (this is treatment time zero) and then at 12 or 24 h intervals for a total of 5 doses as indicated by the arrows. FIG. 7A: PIP-2 at 2 μg/g body wt; N=14 for each group. FIG. 7B: PIP-2 at 2 or 20 μg/g body wt.; Placebo group, n=8; PIP-2 2 mg group, n=7; PIP-2 20 mg group, n=10.
(§2) Anesthesized mice were administered LPS (either 5 or 15 μgig body weight) in 20 μl saline that was instilled into the lung through an endotracheal catheter placed at the level of the tracheal carina. […] PIP-2 in liposomes was suspended in 20 μl saline for IV or IT injection. For studies to evaluate the effect of PIP-2 at zero time, LPS administration was followed by liposomes±PIP-2 also given by IT instillation. For studies to evaluate the effect of PIP-2 administered at later times after LPS, the liposomes±PIP-2 were given by injection into a retinal artery. This shift in route of administration was used to minimize damage to the mouse trachea that could occur with repeated tracheostomy and lead to untoward effects on the lung. […] We gave the second dose of PIP-2 at 12 h to be certain of maximal coverage and then went to every 24 h for PIP-2 administration. For the model of sepsis, LPS (15 μg/g body wt.) in 20 μl saline was injected intraperitoneally and mice were treated with IV PIP-2 at either 2 or 20 μg/g body wt; note that the initial dose of PIP-2 for this sepsis model was IV, not IT. We used the same times of PIP-2 administration in the sepsis model as were used for the IT LPS model. After recovery from anesthesia, all mice were maintained in the vivarium with access ad lib to food and water.
We next evaluated the effect of PIP-2 in mice given LPS (15 μg LPS/g body wt.) by the intraperitoneal route as a model for ALI associated with systemic sepsis.

mice, high dose IT LPS = experiment: High dose intratracheal LPS (15 μg/g): survival and lung injury of survivors
Experimental: as §1, §2
At the end of each experiment with IT LPS (at either 24 or 120 h), surviving mice were sacrificed by exsanguination under anesthesia. Lungs in situ were cleared of blood by perfusion through the pulmonary artery and then were lavaged through the trachea with saline. The lung was then removed from the thorax for tissue assays. We evaluated the effect of LPS on lung injury by measuring the number of nucleated cells and the protein content in the lung bronchoalveolar lavage fluid (BALf), the lung wet to dry lung weight ratio using the left upper lobe of lung, and thiobarbituric-acid reactive products (TBARS), 8-isoprostanes, and protein carbonyls in the lung homogenate to determine the oxidation of lung tissue lipid and protein components. For studies of mouse mortality, survival plots were constructed using the Kaplan-Meier estimator.
The survival data is plotted with the initial PIP-2 treatment as 0 time; LPS was administered 12 h before PIP-2 (−12 h that is off of the graph in FIG. 7A and FIG. 7B).
Mice were instilled IT with LPS (15 μg/g wt); PIP-2 (2 μg/g body wt) in liposomes was injected (IV) at the times shown in FIG. 7A. Five of the surviving mice were sacrificed at 120 h after LPS; control mice were given liposomes but not LPS. […] Values are mean±SE for N=4 for control and N=5 for LPS+PIP-2.

[2] = system: mechanically ventilated mice; experiment: Ventilation-induced lung injury (VILI); type: in vivo, mouse; details: PIP-2 2 ug/g in liposomes IT at start of 6 h mechanical ventilation
Experimental: FIG. 13: Effect of PIP-2 on ventilation-induced lung injury (VILI). Anesthetized mice were mechanically ventilated for 6 h with tidal volume 12 ml/Kg body weight with a respiratory rate 120/min, and 2 cm H2O positive end-expiratory pressure (PEEP). […] Control represents values for normal (non-ventilated) lungs. % Protection was calculated as in Table 1. Results are mean±SE for n=4. *P<0.05 for VILI+PIP vs VILI.

For LHDFRHQIL (Inhibitory peptide.) [PIP-2], the “aiPLA2 activity of lung after LPS” value (aiPLA2 activity of Prdx6) was “dramatic decrease”, the mice fully recovered ([1]; PIP-2 2 μg/g IV) was 43% and the “survival at 36 h after LPS” value ([1]; PIP-2 2 μg/g IV, placebo 100% dead by 48 h) was 86%. For the same sequence, the “long term survival rate” value ([1]; PIP-2 20 μg/g IV) was 70%, the “lungs of PIP-2 treated mice that survive high dose LPS” value (mice, high dose IT LPS; LPS 15 μg/g IT or IP, PIP-2 2 or 20 μg/g IV, 5 days after LPS) was “normal lungs” and the BALf cells (mice, high dose IT LPS; LPS 15 μg/g IT, PIP-2 2 μg/g IV in liposomes 5 doses, survivors sacrificed 120 h after LPS, control 0.95) was 0.96 ± 0.40 ×10^4/g body wt. For the same sequence, the Wet/Dry ratio (mice, high dose IT LPS; LPS 15 μg/g IT, PIP-2 2 μg/g IV, survivors at 120 h after LPS, control 5.59) was 5.34 ± 0.03, the Protein carbonyls (mice, high dose IT LPS; LPS 15 μg/g IT, PIP-2 2 μg/g IV, survivors at 120 h after LPS, control 5.6) was 5.6 ± 0.2 nmol/mg prot and the 8-Isoprostanes (mice, high dose IT LPS; LPS 15 μg/g IT, PIP-2 2 μg/g IV, survivors at 120 h after LPS, control 34) was 34 ± 3 pmol/mg prot. It also gave a BALf protein (mice, high dose IT LPS; LPS 15 μg/g IT, PIP-2 2 μg/g IV, survivors at 120 h after LPS, control 75) of 78 ± 2.2 μg/g wt, a TBARS (mice, high dose IT LPS; LPS 15 μg/g IT, PIP-2 2 μg/g IV, survivors at 120 h after LPS, control 76) of 77 ± 1 pmol/mg prot and a mortality (mice, high dose IT LPS; LPS 15 μg/g IT, PIP-2 2 μg/g IV at 12, 24, 48, 72, 96 h after LPS, at 36 h after start of treatment, no further mortality, placebo 100% by 48 h) of 17%. The survival (mice, high dose IT LPS; LPS 15 μg/g IT, PIP-2 2 μg/g IV, at 36 h after start of treatment) was 83% and the “effect on ventilation-induced lung injury” value [2] was “protected against lung injury”.
